# Molecular target: T1, PDE4B (human recombinant) (Homo sapiens, UniProt Q07343)
# T1 construct: made in house
# Assay: Inhibition of PDE4B activity: SPA and/or Fluorescence Polarisation (FP) assay
# Assay type: biochemical
# Conditions: one reading (n=1) or average of 2 or more readings, read-out: PDE4B pIC50 (±about 0.5) (converted)
# Description: The ability of compounds to inhibit catalytic activity at PDE4B or 4D (human recombinant), PDE3 (from bovine aorta), PDE5 (human recombinant) or PDE6 (from bovine retina) can optionally be determined by Scintillation Proximity Assay (SPA) in a 96-well format.
# The enzyme concentration is adjusted so that no more than 20% hydrolysis of the substrate defined below occurs in control wells without compound, during the incubation. For the PDE3, PDE4B and PDE4D assays, [5′,8-3H]Adenosine 3′,5′-cyclic phosphate (Amersham Pharmacia Biotech, code TRK.559; or Amersham Biosciences UK Ltd, Pollards Wood, Chalfont St Giles, Buckinghamshire HP8 4SP, UK) is added to give 0.05 uCi per well and about 10 nM final concentration. […] Plates containing assay mixture, suitably approx. 100 ul volume of assay mixture, are mixed on an orbital shaker for 5 minutes and incubated at ambient temperature for 1 hour. Phosphodiesterase SPA beads (Amersham Pharmacia Biotech, code RPNQ 0150) are added (about 1 mg per well) to terminate the assay. Plates are sealed and shaken and allowed to stand at ambient temperature for 35 minutes to 1 hour (suitably 35 minutes) to allow the beads to settle. […] Curves are analysed using ActivityBase and XLfit (ID Business Solutions Limited, 2 Ocean Court, Surrey Research Park, Guildford, Surrey GU2 7QB, United Kingdom). Results are expressed as pIC50 values.
# The ability of compounds to inhibit catalytic activity at PDE4B (human recombinant) or PDE4D (human recombinant) can optionally be determined by IMAP Fluorescence Polarisation (FP) assay (IMAP Explorer kit, available from Molecular Devices Corporation, Sunnydale, Calif., USA; Molecular Devices code: R8062) in 384-well format.
# The IMAP FP assay is able to measure PDE activity in an homogenous, non-radioactive assay format. The FP assay uses the ability of immobilised trivalent metal cations, coated onto nanoparticles (tiny beads), to bind the phosphate group of Fl-AMP that is produced on the hydrolysis of fluorescein-labelled (Fl) cyclic adenosine mono-phosphate (Fl-cAMP) to the non-cyclic Fl-AMP form. […] Binding of Fl-AMP product to the beads (coated with the immobilised trivalent cations) slows the rotation of the bound Fl-AMP and leads to an increase in the fluorescence polarisation ratio of parallel to perpendicular light. Inhibition of the PDE reduces/inhibits this signal increase.
# The enzyme level is set by experimentation so that reaction is linear throughout the incubation. Fluorescein adenosine 3′,5′-cyclic phosphate (from Molecular Devices Corporation, Molecular Devices code: R7091) is added to give about 40 nM final concentration (final assay volume usually ca. 20-40 ul, suitably ca. 20 ul). Plates are mixed on an orbital shaker for 10 seconds and incubated at ambient temperature for 40 minutes. IMAP binding reagent (as described above, from Molecular Devices Corporation, Molecular Devices code: R7207) is added (60 ul of a 1 in 400 dilution in binding buffer of the kit stock solution) to terminate the assay. Plates are allowed to stand at ambient temperature for 1 hour. The Fluorescence Polarisation (FP) ratio of parallel to perpendicular light is measured using an Analyst™ plate reader (from Molecular Devices Corporation). […] Curves are analysed using ActivityBase and XLfit (ID Business Solutions Limited, 2 Ocean Court, Surrey Research Park, Guildford, Surrey GU2 7QB, United Kingdom). Results are expressed as plC50 values.
# T1 sequence (Q07343 1-564 isoform Q07343-2): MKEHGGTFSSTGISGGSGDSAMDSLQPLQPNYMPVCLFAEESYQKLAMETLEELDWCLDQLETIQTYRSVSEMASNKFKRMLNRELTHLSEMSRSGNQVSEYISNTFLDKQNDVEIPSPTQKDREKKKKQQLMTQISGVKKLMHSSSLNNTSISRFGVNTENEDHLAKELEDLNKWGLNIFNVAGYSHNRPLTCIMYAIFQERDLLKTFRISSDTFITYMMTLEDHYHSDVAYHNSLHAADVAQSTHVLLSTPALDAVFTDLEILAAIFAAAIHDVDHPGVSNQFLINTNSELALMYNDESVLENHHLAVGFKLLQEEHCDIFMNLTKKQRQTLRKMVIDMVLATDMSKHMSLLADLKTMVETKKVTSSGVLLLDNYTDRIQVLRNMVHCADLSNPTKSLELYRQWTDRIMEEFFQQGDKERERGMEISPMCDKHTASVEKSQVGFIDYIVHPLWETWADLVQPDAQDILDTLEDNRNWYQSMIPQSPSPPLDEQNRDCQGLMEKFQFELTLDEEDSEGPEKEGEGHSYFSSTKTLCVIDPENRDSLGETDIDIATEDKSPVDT
row,IC50,Compound
1,10 to 100 pM,"CCc1nc2c(cnn2CC)c(NC2CCOCC2)c1CNC(=O)c1ccc2c(c1)CCC2 [Example 176, N-{[1,6-diethyl-4-(tetrahydro-2H-pyran-4-ylamino)-1H-pyrazolo[3,4-b]pyridin-5-yl]methyl}-2,3-dihydro-1H-indene-5-carboxamide]"
2,126 to 1000 pM,"CCc1nc2c(cnn2CC)c(NC2CCOCC2)c1CNC(=O)c1ccc2c(c1)CCCC2 [Example 177, N-{[1,6-diethyl-4-(tetrahydro-2H-pyran-4-ylamino)-1H-pyrazolo[3,4-b]pyridin-5-yl]methyl}-5,6,7,8-tetrahydro-2-naphthalenecarboxamide]"
3,10 to 100 pM,"CCc1nc2c(cnn2CC)c(NC2CCOCC2)c1CNC(=O)c1ccc(N2CCCC2=O)cc1 [Example 178, N-{[1,6-diethyl-4-(tetrahydro-2H-pyran-4-ylamino)-1H-pyrazolo[3,4-b]pyridin-5-yl]methyl}-4-(2-oxo-1-pyrrolidinyl)benzamide]"
4,10 to 100 pM,"CCc1nc2c(cnn2CC)c(NC2CCOCC2)c1CNC(=O)c1ccc(N2CCOCC2)cc1 [Example 180, N-{[1,6-diethyl-4-(tetrahydro-2H-pyran-4-ylamino)-1H-pyrazolo[3,4-b]pyridin-5-yl]methyl}-4-(4-morpholinyl)benzamide]"
5,10 to 100 pM,"CCc1nc2c(cnn2CC)c(NC2CCOCC2)c1CNC(=O)c1ccc(C2CCCC2)cc1 [Example 184, 4-cyclopentyl-N-{[1,6-diethyl-4-(tetrahydro-2H-pyran-4-ylamino)-1H-pyrazolo[3,4-b]pyridin-5-yl]methyl}benzamide]"
6,126 to 1000 pM,"CCc1nc2c(cnn2CC)c(NC2CCOCC2)c1CNC(=O)c1cccc2c1CCC2 [Example 189, N-{[1,6-diethyl-4-(tetrahydro-2H-pyran-4-ylamino)-1H-pyrazolo[3,4-b]pyridin-5-yl]methyl}-2,3-dihydro-1H-indene-4-carboxamide]"
7,10 to 100 pM,"CCc1nc2c(cnn2CC)c(NC2CCOCC2)c1CNC(=O)c1cccc(N2CCOCC2)c1 [Example 190, N-{[1,6-diethyl-4-(tetrahydro-2H-pyran-4-ylamino)-1H-pyrazolo[3,4-b]pyridin-5-yl]methyl}-3-(4-morpholinyl)benzamide]"
8,126 to 1000 pM,"CCc1nc2c(cnn2CC)c(NC2CCOCC2)c1CNC(=O)c1ccc2ccccc2c1 [Example 191, N-{[1,6-diethyl-4-(tetrahydro-2H-pyran-4-ylamino)-1H-pyrazolo[3,4-b]pyridin-5-yl]methyl}-2-naphthalenecarboxamide]"
9,126 to 1000 pM,"CCc1nc2c(cnn2CC)c(NC2CCOCC2)c1CNC(=O)c1cccc2ccccc12 [Example 192, N-{[1,6-diethyl-4-(tetrahydro-2H-pyran-4-ylamino)-1H-pyrazolo[3,4-b]pyridin-5-yl]methyl}-1-naphthalenecarboxamide]"
10,10 to 100 pM,"CCc1nc2c(cnn2CC)c(NC2CCOCC2)c1CNC(=O)c1ccc(C(C)C)cc1 [Example 193, N-{[1,6-diethyl-4-(tetrahydro-2H-pyran-4-ylamino)-1H-pyrazolo[3,4-b]pyridin-5-yl]methyl}-4-(1-methylethyl)benzamide]"
11,10 to 100 pM,"CCc1nc2c(cnn2CC)c(NC2CCOCC2)c1CNC(=O)c1ccc(NC(C)=O)cc1 [Example 194, 4-(acetylamino)-N-{[1,6-diethyl-4-(tetrahydro-2H-pyran-4-ylamino)-1H-pyrazolo[3,4-b]pyridin-5-yl]methyl}benzamide]"
12,126 to 1000 pM,"CCc1nc2c(cnn2CC)c(NC2CCOCC2)c1CNC(=O)c1ccoc1C [Example 195, N-{[1,6-diethyl-4-(tetrahydro-2H-pyran-4-ylamino)-1H-pyrazolo[3,4-b]pyridin-5-yl]methyl}-2-methyl-3-furancarboxamide]"
13,126 to 1000 pM,"CCc1nc2c(cnn2CC)c(NC2CCOCC2)c1CNC(=O)c1ccccc1 [Example 196, N-{[1,6-diethyl-4-(tetrahydro-2H-pyran-4-ylamino)-1H-pyrazolo[3,4-b]pyridin-5-y]methyl}benzamide]"

# Further lines, the molecule ahead of its results:
row,Compound,IC50
1,"CCc1nc2c(cnn2CC)c(NC2CCOCC2)c1CNC(=O)c1cc(S(=O)(=O)c2ccccc2)ccc1OC [Example 179, N-{[1,6-diethyl-4-(tetrahydro-2H-pyran-4-ylamino)-1H-pyrazolo[3,4-b]pyridin-5-yl]methyl}-2-(methyloxy)-5-(phenylsulfonyl)benzamide]",10 to 100 pM
2,"CCc1nc2c(cnn2CC)c(NC2CCOCC2)c1CNC(=O)c1cc(C(=O)N(C)c2ccccc2)ccc1OC [Example 182, N˜3˜-{[1,6-diethyl-4-(tetrahydro-2H-pyran-4-ylamino)-1H-pyrazolo[3,4-b]pyridin-5-yl]methyl}-N˜1˜-methyl-4-(methyloxy)-N-˜1˜-phenyl-1,3-benzenedicarboxamide]",10 to 100 pM
3,"CCc1nc2c(cnn2CC)c(NC2CCOCC2)c1CNC(=O)c1cc(S(=O)(=O)NCC2CC2)ccc1OC [Example 183, 5-{[(cyclopropylmethyl)amino]sulfonyl}-N-{[1,6-diethyl-4-(tetrahydro-2H-pyran-4-ylamino)-1H-pyrazolo[3,4-b]pyridin-5-yl]methyl}-2-(methyloxy)benzamide]",10 to 100 pM
4,"CCc1nc2c(cnn2CC)c(NC2CCOCC2)c1CNC(=O)c1cc(S(=O)(=O)N(CC)CC)ccc1OC [Example 185, 5-[(diethylamino)sulfonyl]-N-{[1,6-diethyl-4-(tetrahydro-2H-pyran-4-ylamino)-1H-pyrazolo[3,4-b]pyridin-5-yl]methyl}-2-(methyloxy)benzamide]",10 to 100 pM
5,"CCc1nc2c(cnn2CC)c(NC2CCOCC2)c1CNC(=O)c1cc(S(=O)(=O)NC2CCC2)ccc1OC [Example 186, 5-[(cyclobutylamino)sulfonyl]-N-{[1,6-diethyl-4-(tetrahydro-2H-pyran-4-ylamino)-1H-pyrazolo[3,4-b]pyridin-5-yl]methyl}-2-(methyloxy)benzamide]",10 to 100 pM
6,"CCc1nc2c(cnn2CC)c(NC2CCOCC2)c1CNC(=O)c1ccc(N2CCCCCCC2)cc1 [Example 187, N-{[1,6-diethyl-4-(tetrahydro-2H-pyran-4-ylamino)-1H-pyrazolo[3,4-b]pyridin-5-yl]methyl}-4-(hexahydro-1(2H)-azocinyl)benzamide]",126 to 1000 pM
7,"CCc1nc2c(cnn2CC)c(NC2CCOCC2)c1CNC(=O)c1cc(C#N)c(C(C)C)cc1OC [Example 188, 5-cyano-N-{[1,6-diethyl-4-(tetrahydro-2H-pyran-4-ylamino)-1H-pyrazolo[3,4-b]pyridin-5-yl]methyl}-4-(1-methylethyl)-2-(methyloxy)benzamide]",10 to 100 pM
8,"CCc1nc2c(cnn2CC)c(NC2CCOCC2)c1CN1Cc2occc2C1=O [Example 198, 5-{[1,6-diethyl-4-(tetrahydro-2H-pyran-4-ylamino)-1H-pyrazolo[3,4-b]pyridin-5-yl]methyl}-5,6-dihydro-4H-furo[2,3-c]pyrrol-4-one]",126 to 1000 pM
9,"CCc1nc2c(cnn2CC)c(NC2CCOCC2)c1CN1Cc2ccccc2C1=O [Example 199, 2-{[1,6-diethyl-4-(tetrahydro-2H-pyran-4-ylamino)-1H-pyrazolo[3,4-b]pyridin-5-yl]methyl}-2,3-dihydro-1H-isoindol-1-one]",10 to 100 pM
10,CCc1nc2c(cnn2CC)c(NC2CCOCC2)c1CNC(=O)NCc1ccccc1 [Example 200],126 to 1000 pM
11,"CCc1nc2c(cnn2CC)c(NC2CCOCC2)c1CNC(=O)NCCc1ccccc1 [Example 202, N-{[1,6-diethyl-4-(tetrahydro-2H-pyran-4-ylamino)-1H-pyrazolo[3,4-b]pyridin-5-yl]methyl}-N′-(2-phenylethyl)urea]",126 to 1000 pM

# Source: patent US20090131431A1, “Pyrazolo[3,4-b]pyridine compounds, and their use as a PDE4 inhibitors” (priority 2005, published 2009)
